Experimental data taken from patent publication EP0745595A1, “3-(3-Aryloxyphenyl)-1-(substituted methyl)-s-triazine-2,4,6-oxo or thiotrione herbicidal agents” (American Cyanamid Company, priority 1995, dated 1996).

What was measured:
Format in all cases: in vivo
[1] = tested on: CYPERUS SEROTINUS, ROTTB.; assay: Preemergence weed control under flooded paddy conditions, CYPSE (Flatsedge); conditions: for CYPSE herbicidal rating: preemergence weeds, rated three to four weeks after treatment
Procedure, shortened: (§1)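 Flooded paddy preemergence test: seeds/propagating organs in top 0.5 cm silt loam, water held 1.5-3 cm above soil. Dosing by pipette into flood water, aqueous/acetone 50/50 v/v, ~0.5, 0.25, 0.125, 0.063 kg/ha a.i. Greenhouse; read at 3-4 wk, 0-9 visual scale.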

[2] = tested on: TRITICUM AESTIVUM, CV. APOLLO; assay: Preemergence herbicidal evaluation, TRZAWO (Wheat, Winter, CV. APOLLO); conditions: for TRZAWO rating: four to five weeks after treatment; for TRZAWO herbicidal rating: rated four to five weeks after treatment
Procedure, shortened: (§2)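 Injury scored visually (0–9; stand, vigor, malformation, size, chlorosis) versus untreated control, four to five weeks post-treatment. Application: aqueous acetone spray onto freshly planted soil cups, equivalent to about 0.125 to 0.50 kg/ha, plants then kept under standard greenhouse care.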

[3] = tested on: ECHINOCHLOA CRUS-GALLI, (L) BEAU; assay: Preemergence herbicidal evaluation, ECHCG (Barnyardgrass); conditions: for ECHCG rating: four to five weeks after treatment; for ECHCG herbicidal rating: rated four to five weeks after treatment
Procedure, shortened: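 Barnyardgrass seeds were mixed with potting soil and planted on about one inch of soil in pint cups for preemergence testing. Treated cups were kept on greenhouse benches, watered and maintained by standard greenhouse practice. After four to five weeks, each cup was visually rated on a 0-9 scale against an untreated control.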

[4] = tested on: ORYZA SATIVA, L. TEBONNET; assay: Postemergence herbicidal evaluation, ORYSAT (Rice, Tebonnet); design: key: 0-9 visual rating scale vs untreated control
Procedure, shortened: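 Rice (Tebonnet) seedlings raised in jiffy flats for roughly two weeks were sprayed postemergence at 40 psi with compound dispersed in 50/50 acetone/water containing 0.5% TWEEN®20. The plants were then kept on greenhouse benches under standard care and visually scored on a 0-9 scale against a control four to five weeks after treatment.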

[5] = tested on: GLYCINE MAX(L) MERR. CV. WILLIAMS; assay: Postemergence herbicidal evaluation, GLXMAW (Soybean, Williams); design: key to GLXMAW rating / Herbicidal effect rating, GLXMAW / GLXMAW: 0-9 visual rating scale vs untreated control
Procedure, shortened: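 Soybean seedlings (Williams) were raised in jiffy flats for roughly two weeks, then sprayed postemergence through a nozzle at 40 psi with test compound dispersed in 50/50 acetone/water containing 0.5% TWEEN®20. Treated plants were kept on greenhouse benches under normal care and visually rated on a 0-9 scale four to five weeks later.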

[…], PRESL. = Preemergence weed control under flooded paddy conditions, MOOVA (Monochoria); conditions: for Herbicidal effect rating, MOOVA: preemergence, 3-4 weeks after treatment; for MOOVA: pre-weed
Procedure, shortened: as §1

[6] = tested on: ECHINOCHLOA ORYZOIDES (ARD.)FRITSCH; assay: Preemergence weed control under flooded paddy conditions, ECHORC (Watergrass (Calif.)); conditions: for Herbicidal effect rating, ECHORC: preemergence, 3-4 weeks after treatment; for ECHORC: pre-weed
Procedure, shortened: as §1

GALIUM APARINE = assay: Preemergence herbicidal evaluation, GALAP (Galium); conditions: for GALAP herbicidal rating: rated four to five weeks after treatment
Procedure, shortened: as §2

CASSIA OBTUSIFOLIA, L. [7] = assay: Postemergence herbicidal evaluation, CASOB (Sicklepod); design: key to CASOB rating / Herbicidal effect rating, CASOB / CASOB: 0-9 visual rating scale vs untreated control; conditions: for CASOB, herbicide rating (0-9): rated four to five weeks after treatment, averaged
Procedure, shortened: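 Two-week-old seedlings sprayed with compound in 50/50 acetone/water plus 0.5% TWEEN 20 at about 0.125–0.500 kg/ha via nozzle at 40 psi. Kept in greenhouse; rated visually 4–5 weeks after treatment on a 0–9 scale versus untreated control, averaging repeat tests.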

CASSIA OBTUSIFOLIA, L. [8] = assay: Preemergence herbicidal evaluation, CASOB (Sicklepod); conditions: rated four to five weeks after treatment
Procedure, shortened: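 Seeds of various monocot and dicot plants, including sicklepod, were each mixed with potting soil and sown on roughly one inch of soil in separate pint cups for preemergence testing. Treated cups were kept on greenhouse benches, watered and maintained conventionally. Four to five weeks after treatment, each cup was visually rated on a 0-9 scale against a control.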

SAGITTARIA PYGMAEA, L. = assay: Preemergence weed control under flooded paddy conditions, SAGPY (Arrowhead (Pygmaea)); conditions: 0.500 kg/ha, preemergence, 3-4 weeks after treatment
Procedure, shortened: as §1

ZEA MAYS L. = assay: Preemergence herbicidal evaluation, ZEAMX (Corn, Field); conditions: rated four to five weeks after treatment
Procedure, shortened: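 Corn (Zea mays) seeds were mixed with potting soil and planted on about one inch of soil in pint cups, then treated preemergence. Cups were kept on greenhouse benches, watered and maintained conventionally, and after four to five weeks were visually rated on a 0-9 scale versus an untreated control.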

CYPERUS IRIA = assay: Preemergence weed control under flooded paddy conditions, CYPIR (Rice Flatsedge); conditions: 0.500 kg/ha, preemergence, 3-4 weeks after treatment
Procedure, shortened: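 Seeds or propagating organs of rice flatsedge were planted in the top 0.5 cm of silt loam soil in 32 oz. plastic containers, 10.5 cm across and without drainage holes. Water was kept 1.5 to 3 cm above the soil throughout. Treated containers were kept on greenhouse benches, and herbicidal effect was visually rated on a 0-9 scale against a control.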

[9] = tested on: GLYCINE MAX(L) MERR. CV. WILLIAMS; assay: Preemergence herbicidal evaluation, GLXMAW (Soybean, Williams); conditions: rated four to five weeks after treatment
Procedure, shortened: as §2

SMILES: COC(=O)Cn1c(=O)[nH]c(=O)n(-c2cc(Oc3ccc(C(F)(F)F)cc3Cl)ccc2[N+](=O)[O-])c1=O [Compound 8, Methyl 3-{5-[(2-chloro-α,α,α-trifluoro-p-tolyl)oxy]-2-nitrophenyl}tetrahydro-2,4,6-trioxo-s-triazine-1(2H)-acetate]
- CYPSE herbicidal rating ([1]; Rate 0.063 kg/ha): 0.0
- CYPSE herbicidal rating ([1]; Rate 0.125 kg/ha): 0.0
- CYPSE herbicidal rating ([1]; Rate 0.250 kg/ha): 0.0
- TRZAWO rating ([2]; Rate 0.125 kg/ha): 3.0
- TRZAWO rating ([2]; Rate 0.250 kg/ha): 3.0
- TRZAWO rating ([2]; Rate 0.500 kg/ha): 3.0
- ECHCG rating ([3]; Rate 0.125 kg/ha): 0.0
- ECHCG rating ([3]; Rate 0.250 kg/ha): 0.0
- ECHCG rating ([3]; Rate 0.500 kg/ha): 0.0

SMILES: COC(=O)Cn1c(=O)n(C)c(=O)n(-c2cc(Oc3c(F)cc(C(F)(F)F)cc3Cl)ccc2[N+](=O)[O-])c1=O [Compound 16, Methyl 3-{5-[(2-chloro-α,α,α,6-tetrafluoro-p-tolyl)oxy]-2-nitrophenyl}tetrahydro-5-methyl-2,4,6-trioxo-s-triazine-1(2H)-acetate]
- ORYSAT ([4]; Rate 0.008 kg/ha): 4.0
- ORYSAT ([4]; Rate 0.016 kg/ha): 6.0
- ORYSAT ([4]; Rate 0.031 kg/ha): 5.3
- ORYSAT ([4]; Rate 0.063 kg/ha): 5.3
- ORYSAT ([4]; Rate 0.125 kg/ha): 5.8
- GLXMAW ([5]; Rate 0.008 kg/ha): 3.3
- GLXMAW ([5]; Rate 0.016 kg/ha): 3.8
- GLXMAW ([5]; Rate 0.031 kg/ha): 4.6
- GLXMAW ([5]; Rate 0.063 kg/ha): 5.1
- GLXMAW ([5]; Rate 0.125 kg/ha): 5.6
- Herbicidal effect rating, MOOVA ([…], PRESL.; 0.063 kg/ha): 9.0
- Herbicidal effect rating, MOOVA ([…], PRESL.; 0.125 kg/ha): 9.0
- Herbicidal effect rating, MOOVA ([…], PRESL.; 0.250 kg/ha): 9.0
- Herbicidal effect rating, MOOVA ([…], PRESL.; 0.500 kg/ha): 9.0
- MOOVA ([…], PRESL.; Rate 0.031 kg/ha): 9.0
- MOOVA ([…], PRESL.; Rate 0.063 kg/ha): 9.0
- MOOVA ([…], PRESL.; Rate 0.125 kg/ha): 9.0
- MOOVA ([…], PRESL.; Rate 0.250 kg/ha): 9.0
- Herbicidal effect rating, ECHORC ([6]; 0.063 kg/ha): 9.0
- Herbicidal effect rating, ECHORC ([6]; 0.125 kg/ha): 9.0
- Herbicidal effect rating, ECHORC ([6]; 0.250 kg/ha): 9.0
- Herbicidal effect rating, ECHORC ([6]; 0.500 kg/ha): 9.0
- ECHORC ([6]; Rate 0.031 kg/ha): 9.0
- ECHORC ([6]; Rate 0.063 kg/ha): 9.0
- ECHORC ([6]; Rate 0.125 kg/ha): 9.0
- ECHORC ([6]; Rate 0.250 kg/ha): 9.0
- GALAP (GALIUM APARINE; Rate 0.031 kg/ha): 9.0
- GALAP (GALIUM APARINE; Rate 0.063 kg/ha): 9.0
- GALAP (GALIUM APARINE; Rate 0.125 kg/ha): 9.0
- GALAP herbicidal rating (GALIUM APARINE; Rate 0.125 kg/ha): 9.0
- GALAP (GALIUM APARINE; Rate 0.250 kg/ha): 9.0
- GALAP herbicidal rating (GALIUM APARINE; Rate 0.250 kg/ha): 9.0
- GALAP herbicidal rating (GALIUM APARINE; Rate 0.500 kg/ha): 9.0
- CASOB (CASSIA OBTUSIFOLIA, L. [7]; Rate 0.008 kg/ha): 5.5
- CASOB (CASSIA OBTUSIFOLIA, L. [7]; Rate 0.016 kg/ha): 8.7
- CASOB (CASSIA OBTUSIFOLIA, L. [7]; Rate 0.031 kg/ha): 9.0
- CASOB (CASSIA OBTUSIFOLIA, L. [7]; Rate 0.063 kg/ha): 8.3
- CASOB (CASSIA OBTUSIFOLIA, L. [7]; Rate 0.125 kg/ha): 9.0
- CASOB, herbicide rating (0-9) (CASSIA OBTUSIFOLIA, L. [7]; Rate 0.125 kg/ha): 9.0
- CASOB, herbicide rating (0-9) (CASSIA OBTUSIFOLIA, L. [7]; Rate 0.250 kg/ha): 9.0
- CASOB, herbicide rating (0-9) (CASSIA OBTUSIFOLIA, L. [7]; Rate 0.500 kg/ha): 9.0

SMILES: COC(=O)Cn1c(=O)n(C)c(=O)n(-c2cc(Oc3ccc(SC)cc3Cl)ccc2[N+](=O)[O-])c1=O [Compound 34, Methyl 3-{5-[2-chloro-4-(methylthio)-phenoxy]-2-nitrophenyl}tetrahydro-5-methyl-2,4,6-trioxo-s-triazine-1(2H)-acetate]
- Herbicidal effect rating, MOOVA ([…], PRESL.; 0.500 kg/ha): 0.0
- Herbicidal effect rating, ECHORC ([6]; 0.500 kg/ha): 0.0
- CASOB herbicidal rating (CASSIA OBTUSIFOLIA, L. [8]; Rate 0.125 kg/ha): 0.0
- CASOB herbicidal rating (CASSIA OBTUSIFOLIA, L. [8]; Rate 0.250 kg/ha): 0.0
- CASOB herbicidal rating (CASSIA OBTUSIFOLIA, L. [8]; Rate 0.500 kg/ha): 0.0
- Herbicidal effect rating, CYPSE ([1]; 0.500 kg/ha, preemergence, 3-4 weeks after treatment): 0.0
- Herbicidal effect rating, SAGPY (SAGITTARIA PYGMAEA, L.): 0.0
- TRZAWO herbicidal rating ([2]; Rate 0.125 kg/ha): 0.0
- TRZAWO herbicidal rating ([2]; Rate 0.250 kg/ha): 0.0
- TRZAWO herbicidal rating ([2]; Rate 0.500 kg/ha): 0.0
- ZEAMX herbicidal rating (ZEA MAYS L.; Rate 0.125 kg/ha): 0.0
- ZEAMX herbicidal rating (ZEA MAYS L.; Rate 0.250 kg/ha): 0.0
- ZEAMX herbicidal rating (ZEA MAYS L.; Rate 0.500 kg/ha): 0.0
- Herbicidal effect rating, CYPIR (CYPERUS IRIA): 0.0
- ECHCG herbicidal rating ([3]; Rate 0.125 kg/ha): 0.0
- ECHCG herbicidal rating ([3]; Rate 0.250 kg/ha): 0.0
- ECHCG herbicidal rating ([3]; Rate 0.500 kg/ha): 0.0
- GLXMAW herbicidal rating ([9]; Rate 0.125 kg/ha): 0.0
- GLXMAW herbicidal rating ([9]; Rate 0.250 kg/ha): 0.0
- GLXMAW herbicidal rating ([9]; Rate 0.500 kg/ha): 0.0
